Data: patent US20240309005A1 (priority 2021, published 2024)
In brackets after ≈: the same amount, converted by molar mass.

Columns and labels:
[1] = physchem; details: 25 °C, kinetic from dmso stock
[2] = biological target: CYP1A2 (Homo sapiens (Human), UniProt P05177); test: in vitro; details: microsomes
[3] = biological target: CYP2B6 (Homo sapiens (Human), UniProt P20813); test: in vitro; details: microsomes
[4] = biological target: CYP2C9 (Homo sapiens (Human), UniProt P11712); test: in vitro; details: microsomes
[5] = biological target: CYP2D6 (Homo sapiens (Human), UniProt P10635); test: in vitro; details: microsomes
[6] = tested on: CYP3A4; test: in vitro; details: human, microsomes
[7] = tested on: hERG / SGK1 (whole cell)
[8] = in vivo; details: male, CD1, mouse; for Cmax / bioavailability: po, 30 mg/kg
[9] = male, SD, in vivo
[10] = in vivo; details: male, SD, rat; for bioavailability / Cmax: po, 30 mg/kg

Chain of CYP2D6 (P10635 whole entry): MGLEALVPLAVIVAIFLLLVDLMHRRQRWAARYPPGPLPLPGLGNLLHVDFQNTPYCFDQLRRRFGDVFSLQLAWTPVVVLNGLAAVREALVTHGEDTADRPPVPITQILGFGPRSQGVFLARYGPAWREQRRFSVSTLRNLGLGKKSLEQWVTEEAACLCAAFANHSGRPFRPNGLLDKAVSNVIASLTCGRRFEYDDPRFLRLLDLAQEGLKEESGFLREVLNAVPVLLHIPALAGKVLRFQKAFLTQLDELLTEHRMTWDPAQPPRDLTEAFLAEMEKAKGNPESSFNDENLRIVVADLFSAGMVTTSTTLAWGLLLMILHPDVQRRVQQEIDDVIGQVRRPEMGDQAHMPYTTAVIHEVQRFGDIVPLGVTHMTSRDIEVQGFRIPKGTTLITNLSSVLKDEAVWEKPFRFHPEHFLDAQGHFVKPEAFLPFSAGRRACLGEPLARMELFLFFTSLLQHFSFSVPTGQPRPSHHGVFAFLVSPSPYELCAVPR
Chain of CYP1A2 (P05177 whole entry): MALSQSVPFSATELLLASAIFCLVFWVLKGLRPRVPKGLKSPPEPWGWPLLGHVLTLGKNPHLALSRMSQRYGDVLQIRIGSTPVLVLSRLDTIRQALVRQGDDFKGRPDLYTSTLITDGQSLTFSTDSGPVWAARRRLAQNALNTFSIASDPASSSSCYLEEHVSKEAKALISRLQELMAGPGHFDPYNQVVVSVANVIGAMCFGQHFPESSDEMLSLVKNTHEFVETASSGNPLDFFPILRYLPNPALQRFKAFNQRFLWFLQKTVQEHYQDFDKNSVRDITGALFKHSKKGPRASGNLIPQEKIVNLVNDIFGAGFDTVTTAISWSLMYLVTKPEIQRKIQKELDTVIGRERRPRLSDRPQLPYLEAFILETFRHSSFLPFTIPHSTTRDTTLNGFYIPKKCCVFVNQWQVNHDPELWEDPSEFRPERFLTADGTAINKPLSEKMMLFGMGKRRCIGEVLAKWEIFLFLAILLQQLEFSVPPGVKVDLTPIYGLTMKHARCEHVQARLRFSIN
Chain of CYP2C9 (P11712 whole entry): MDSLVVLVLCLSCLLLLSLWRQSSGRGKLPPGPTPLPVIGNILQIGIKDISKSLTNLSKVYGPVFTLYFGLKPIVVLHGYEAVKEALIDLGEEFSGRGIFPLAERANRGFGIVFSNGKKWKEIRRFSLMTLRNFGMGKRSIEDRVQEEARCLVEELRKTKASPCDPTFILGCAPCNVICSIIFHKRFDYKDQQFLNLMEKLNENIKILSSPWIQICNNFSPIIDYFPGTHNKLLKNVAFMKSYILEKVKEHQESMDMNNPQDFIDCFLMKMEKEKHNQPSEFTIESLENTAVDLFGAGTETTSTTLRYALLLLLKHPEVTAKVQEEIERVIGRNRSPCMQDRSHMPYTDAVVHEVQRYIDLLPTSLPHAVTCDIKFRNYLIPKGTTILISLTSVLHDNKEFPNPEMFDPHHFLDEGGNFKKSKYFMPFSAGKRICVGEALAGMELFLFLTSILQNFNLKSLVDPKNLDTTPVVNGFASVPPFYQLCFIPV
Chain of CYP2B6 (P20813 whole entry): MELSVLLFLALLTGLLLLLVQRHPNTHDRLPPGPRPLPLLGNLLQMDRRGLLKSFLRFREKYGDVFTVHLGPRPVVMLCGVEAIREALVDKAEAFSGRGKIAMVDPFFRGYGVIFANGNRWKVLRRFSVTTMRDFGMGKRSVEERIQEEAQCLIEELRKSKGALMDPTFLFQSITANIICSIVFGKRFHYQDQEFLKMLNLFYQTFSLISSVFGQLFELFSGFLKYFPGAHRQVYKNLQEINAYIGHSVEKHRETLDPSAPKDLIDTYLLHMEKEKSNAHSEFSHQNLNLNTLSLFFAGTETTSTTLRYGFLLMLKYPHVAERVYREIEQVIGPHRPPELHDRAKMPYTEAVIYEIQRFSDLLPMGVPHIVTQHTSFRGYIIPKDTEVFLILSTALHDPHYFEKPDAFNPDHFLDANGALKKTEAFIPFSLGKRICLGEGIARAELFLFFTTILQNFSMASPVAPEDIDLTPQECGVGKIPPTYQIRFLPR

| Compound | solubility at 2 h ([1]; pH 5, fessif) | solubility at 2 h ([1]; pH 7.4, aqueous buffer) | inhibition at 20 min, 10 µM [2] | inhibition at 20 min, 10 µM [3] | inhibition at 20 min, 10 µM [4] | inhibition at 20 min, 10 µM [5] | inhibition at 5 min, 10 µM [6] | inhibition at 10 min, 10 µM [6] | Cmax [8] | bioavailability [8] | pK Data in Rat: F [9] | half-life [8] | half-life [10] | bioavailability [10] | Cmax ([10]; Cmax (ng/ml)) | Cmax ([10]; pK Data in Rat: Cmax) | hERG/IC50 [7] |
| --- | --- | --- | --- | --- | --- | --- | --- | --- | --- | --- | --- | --- | --- | --- | --- | --- | --- |
| Cc1n[nH]c2nc(-c3ccc(NS(=O)(=O)N4CCCC4)cc3)nc(OC3CCN(C(C)C)CC3)c12 [Compound 2, N-(4-(4-((1-isopropylpiperidin-4-yl)oxy)-3-methyl-1H-pyrazolo[3,4-d]pyrimidin-6-yl)phenyl)pyrrolidine-1-sulfonamide] | 291 µM (≈ 145 µg/mL) | 59.1 µM (≈ 29.5 µg/mL) | 5.9% | -5% | 13% | 7.3% | 7% | 13% | – | – | – | – | – | – | – | – | – |
| Cc1n[nH]c2nc(-c3ccc(NS(=O)(=O)c4cccnc4)cc3)nc(NCCN(C)C)c12 [Compound 23, N-[4-(4-[[2-(dimethylamino)ethyl]amino]-3-methyl-1H-pyrazolo[3,4-d]pyrimidin-6-yl)phenyl]pyridine-3-sulfonamide] | 274 µM (≈ 124 µg/mL) | 13.7 µM (≈ 6.2 µg/mL) | – | – | – | – | – | – | – | – | – | – | – | – | – | – | 4.1 |
| COc1ccnc(S(=O)(=O)Nc2ccc(-c3nc(NCCN(C)C)c4c(C)n[nH]c4n3)cc2)c1 [Compound 27, N-(4-(4-((2-(dimethylamino)ethyl)amino)-3-methyl-1H-pyrazolo[3,4-d]pyrimidin-6-yl)phenyl)-4-methoxypyridine-2-sulfonamide] | 256 µM (≈ 124 µg/mL) | 36.5 µM (≈ 17.6 µg/mL) | – | – | – | – | – | – | 40.3 ng/mL | – | – | 2.7 h | – | – | – | – | 341 |
| Cc1n[nH]c2nc(-c3ccc(NS(=O)(=O)c4cc(Cl)ccc4F)c(F)c3)nc(OC3CCN(C(C)C)CC3)c12 [Compound 28] | 293 µM (≈ 169 µg/mL) | 1.7 µM (≈ 0.981 µg/mL) | – | – | – | – | – | – | 4020 ng/mL | 51% | Cmax = 4017 ng/mL F = 51% | 3.4 h | – | – | – | 4020 ng/mL | – |
| Cc1n[nH]c2nc(-c3ccc(NS(=O)(=O)c4cc(C(F)(F)F)ccn4)cc3)nc(O[C@@H]3CCN(C)C[C@@H]3F)c12 [Compound 63, N-[4-(4-{[(3S,4R)-3-fluoro-1-methylpiperidin-4-yl]oxy}-3-methyl-1H-pyrazolo[3,4-d]pyrimidin-6-yl)phenyl]-4-(trifluoromethyl)pyridine-2-sulfonamide] | 205 µM (≈ 116 µg/mL) | 1.9 µM (≈ 1.07 µg/mL) | 2.4% | 12% | 65% | 7.5% | -24% | -2% | 1120 ng/mL | – | – | 12 h | – | – | – | – | – |
| Cc1n[nH]c2nc(-c3ccc(NS(=O)(=O)c4cc(Cl)ccc4F)c(Cl)c3)nc(NCCN(C)CCO)c12 [Compound 99, 5-chloro-N-{2-chloro-4-[4-({2-[(2-hydroxyethyl)(methyl)amino]ethyl}amino)-3-methyl-1H-pyrazolo[3,4-d]pyrimidin-6-yl]phenyl}-2-fluorobenzenesulfonamide] | – | – | – | – | – | – | – | – | – | – | Cmax = 141 ng/mL F = 5.6% | – | 10 h | 5.6% | 141 ng/mL | 141 ng/mL | 91 |
| Cc1nc2c([nH]1)c(=O)n(C)c(=O)n2Cc1ccco1 [Furafylline] | – | – | 78% | – | – | – | – | – | – | – | – | – | – | – | – | – | – |

The next lines start with results.

| solubility at 2 h ([1]; pH 5, fessif) | solubility at 2 h ([1]; pH 7.4, aqueous buffer) | inhibition at 20 min, 10 µM [2] | inhibition at 20 min, 10 µM [3] | inhibition at 20 min, 10 µM [4] | inhibition at 20 min, 10 µM [5] | inhibition at 5 min, 10 µM [6] | inhibition at 10 min, 10 µM [6] | Cmax [8] | bioavailability [8] | pK Data in Rat: F [9] | half-life [8] | half-life [10] | bioavailability [10] | Cmax ([10]; Cmax (ng/ml)) | Cmax ([10]; pK Data in Rat: Cmax) | Compound | hERG/IC50 [7] |
| --- | --- | --- | --- | --- | --- | --- | --- | --- | --- | --- | --- | --- | --- | --- | --- | --- | --- |
| 297 µM (≈ 143 µg/mL) | 37 µM (≈ 17.9 µg/mL) | – | – | – | – | – | – | 9.3 ng/mL | 0.31% | – | – | – | – | – | – | COc1ccncc1S(=O)(=O)Nc1ccc(-c2nc(NCCN(C)C)c3c(C)n[nH]c3n2)cc1 [Compound 19, N-(4-(4-(2-(dimethylamino)ethylamino)-3-methyl-1H-pyrazolo[3,4-d]pyrimidin-6-yl)phenyl)-4-methoxypyridine-3-sulfonamide] | 1.5 |
| 289 µM (≈ 154 µg/mL) | 8.37 µM (≈ 4.47 µg/mL) | – | – | – | – | – | – | 37.9 ng/mL | 2.5% | Cmax = 42 ng/mL F = 2.8% | 2.3 h | 5.14 h | 2.79% | 41.9 ng/mL | 42 ng/mL | Cc1n[nH]c2nc(-c3ccc(NS(=O)(=O)c4cc(Cl)ccc4F)cc3)nc(NCCN(C)CCO)c12 [Compound 22, 5-chloro-2-fluoro-N-[4-[4-([2-[(2-hydroxyethyl)(methyl)amino]ethyl]amino)-3-methyl-1H-pyrazolo[3,4-d]pyrimidin-6-yl]phenyl]benzenesulfonamide] | 201 |
| 300 µM (≈ 136 µg/mL) | 278 µM (≈ 126 µg/mL) | – | – | – | – | – | – | 45.1 ng/mL | 1.55% | – | 2.3 h | – | – | – | – | Cc1n[nH]c2nc(-c3ccc(NS(=O)(=O)c4ccccn4)cc3)nc(NCCN(C)C)c12 [Compound 24, N-[4-(4-[[2-(dimethylamino)ethyl]amino]-3-methyl-1H-pyrazolo[3,4-d]pyrimidin-6-yl)phenyl]pyridine-2-sulfonamide] | 20.7 |
| 245 µM (≈ 131 µg/mL) | 3 µM (≈ 1.6 µg/mL) | 8.8% | 26% | 75% | 26% | 54% | 77% | 115 ng/mL | 8% | – | 1.04 h | 9.7 h | 0.45% | 16 ng/mL | – | Cc1n[nH]c2nc(-c3ccc(NS(=O)(=O)c4cc(Cl)ccc4F)cc3)nc(O[C@@H]3CCNC[C@@H]3F)c12 [Compound 29, 5-chloro-2-fluoro-N-(4-(4-(((3S,4R)-3-fluoropiperidin-4-yl)oxy)-3-methyl-1H-pyrazolo[3,4-d]pyrimidin-6-yl)phenyl)benzenesulfonamide] | 2476 |
| – | – | 11% | 39% | 92% | 44% | 93% | 91% | – | – | – | – | – | – | – | – | Cc1n[nH]c2nc(-c3ccc(NS(=O)(=O)c4cc(Cl)ccc4F)cc3)nc(O[C@@H]3CCNCC3(F)F)c12 [Compound 44, (R)-5-chloro-N-(4-(4-((3,3-difluoropiperidin-4-yl)oxy)-3-methyl-1H-pyrazolo[3,4-d]pyrimidin-6-yl)phenyl)-2-fluorobenzenesulfonamide] | – |
| 277 µM (≈ 135 µg/mL) | 7.98 µM (≈ 3.89 µg/mL) | – | – | – | – | – | – | – | – | Cmax = 131 ng/mL F = 4.7% | – | 3.63 h | 4.68% | 131 ng/mL | 131 ng/mL | Cc1n[nH]c2nc(-c3ccc(NS(=O)(=O)c4cc(F)ccc4F)cc3)nc(NCCN(C)C)c12 [Compound 45, N-(4-(4-((2-(dimethylamino)ethyl)amino)-3-methyl-1H-pyrazolo[3,4-d]pyrimidin-6-yl)phenyl)-2,5-difluorobenzenesulfonamide] | – |
| 275 µM (≈ 152 µg/mL) | 16 µM (≈ 8.83 µg/mL) | – | – | – | – | – | – | 111 ng/mL | 4.9% | Cmax = 69 ng/mL F = 4.9% | 2.5 h | – | – | – | 69 ng/mL | Cc1n[nH]c2nc(-c3ccc(NS(=O)(=O)c4cc(Cl)ccc4F)c(F)c3)nc(NCCN(C)CCO)c12 [Compound 78, 5-chloro-2-fluoro-N-{2-fluoro-4-[4-({2-[(2-hydroxyethyl)(methyl)amino]ethyl}amino)-3-methyl-1H-pyrazolo[3,4-d]pyrimidin-6-yl]phenyl}benzenesulfonamide] | – |
